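Assay format: 96-well plates, 48-hour exposure. GI50 marks 50% less growth. The concentration for full growth arrest is given as TGI.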
Tests used:
Assay in all cases: NCI-60 cell line screen, 48 h
IGROV1 ovarian = system: IGROV1 ovarian
UACC-62 melanoma = system: UACC-62 melanoma
786-0 renal = system: 786-0 renal
PC-3 prostate = system: PC-3 prostate
SF-295 CNS = system: SF-295 CNS
NCI-H226 lung = system: NCI-H226 lung
SK-OV-3 ovarian = system: SK-OV-3 ovarian
RXF 393 renal = system: RXF 393 renal
RPMI-8226 leukemia = system: RPMI-8226 leukemia
SK-MEL-28 melanoma = system: SK-MEL-28 melanoma

Structure (SMILES) | GI50 (IGROV1 ovarian) [µM] | TGI (IGROV1 ovarian) [µM] | GI50 (UACC-62 melanoma) [µM] | TGI (UACC-62 melanoma) [µM] | GI50 (786-0 renal) [µM] | TGI (786-0 renal) [µM] | GI50 (PC-3 prostate) [µM] | TGI (PC-3 prostate) [µM] | GI50 (SF-295 CNS) [µM] | TGI (SF-295 CNS) [µM] | GI50 (NCI-H226 lung) [µM] | TGI (NCI-H226 lung) [µM] | GI50 (SK-OV-3 ovarian) [µM] | TGI (SK-OV-3 ovarian) [µM] | GI50 (RXF 393 renal) [µM] | TGI (RXF 393 renal) [µM] | GI50 (RPMI-8226 leukemia) [µM] | TGI (RPMI-8226 leukemia) [µM] | GI50 (SK-MEL-28 melanoma) [µM] | TGI (SK-MEL-28 melanoma) [µM]
COc1ccc(OC)c(/C=C/C(=O)c2ccc(SC)cc2)c1 | 11 | 27.1 | 15 | 29.1 | 7.53 | 21.6 | 3.49 | 14.9 | 5.05 | 57 | 28.9 | 88.4 | 8.07 | > 100 | 16.2 | 37.3 | 1.66 | 7.05 | 10.1 | 51.1
Nc1ccc(Sc2ccc3c4c2cccc4c(=O)n2c4ccccc4nc32)cc1 | 3.9 | 32 | 2.48 | 16.1 | 3.34 | 10.4 | 2.67 | 21.7 | 2.38 | 8.01 | 2.43 | 11.3 | 5.63 | 37.2 | 6.9 | 34.5 | 2.5 | 14.3 | 12.8 | 35.3
CCOC(=O)Nc1ccc2nc(Sc3ccc(Cl)cc3)sc2c1 | 5.09 | > 100 | 1.6 | 48.3 | 8.12 | 40.3 | 4.27 | > 100 | 2.19 | 33.9 | 7.9 | 76.3 | 4.8 | > 95 | 2.99 | 18.8 | 3.51 | 54.8 | 13.5 | > 100
CCOC(=O)CCC(NC(=O)c1ccc(Nc2nc3cc(N)cc(N)c3nc2-c2ccccc2)cc1)C(=O)OCC (stereo not given) | 22.6 | > 94.7 | 12.6 | > 38.2 | > 42.3 | > 60.9 | 20.5 | 89 | > 42 | > 66.3 | > 51.6 | > 74.1 | 22 | 47.7 | 43.4 | > 92.6 | 6.43 | > 59.3 | 5.76 | 13.3
C=C(C)[C@@H]1CC[C@@H]2C(=CC[C@]3(C)C([C@H](C)CC/C=C(/C)C(=O)O)CC[C@@]23C)[C@@]1(C)CCC(=O)O (stereo not given in full) | – | 88.8 | – | 39.4 | – | 43.9 | – | 65.9 | – | > 100 | – | 83.1 | – | > 100 | – | 35.1 | – | 58.2 | – | 98.9
COc1ccc(C(=O)C(CN(C)C)c2ccccc2)cc1 (stereo not given) | 2.18 | 5.74 | 2.81 | 8.22 | 1.62 | 3.01 | 4.6 | 17.4 | 12.6 | 32.4 | 2.67 | 8.59 | 27.7 | 77.2 | 1.32 | 3.1 | 1.88 | > 100 | 1.83 | 3.38
COc1cc2cc(Oc3ccc(NC(=O)Nc4cc(C(F)(F)F)cc(C(F)(F)F)c4)cc3)c(C)nc2cc1OCCN1CCCCC1 | 1.35 | 2.79 | 1.82 | 3.31 | 1.71 | 3.25 | 1.49 | 2.85 | 1.83 | 3.38 | 1.7 | 3.96 | 2.04 | 3.9 | 1.59 | 3.2 | 2.08 | 4.72 | 1.66 | 3.07
